# Source: US20230270764A1, “COMPOSITION COMPRISING CANNABINOIDS, TERPENES, AND FLAVONOIDS FOR TREATING DEPRESSION” (priority 2020, published 2023)
# System: LPS-injected mice
# Assay: Sucrose preference test in the LPS-induced model of depression
# Type: in vivo
# Settings: Example 9; male C57BL/6, i.p. 1 h before LPS 330 µg/kg; mg/kg: CBD 30; CBDA 1 or 5; BCP 50; kaempferol 30; CBD 30 plus THC 10; CBD 30 plus kaempferol 30
# From the text: In a preliminary screening experiment, subjects were 4-6 months-old male C57BL/6 (Jackson Laboratories, USA). Animals were housed 2-3/cage, kept in an air-conditioned room (23+°C) and given ad libitum access to food and water. The mice were kept in a reversed light/dark cycle, with lights off from 7 a.m. to 7 p.m. All experiments were approved by the Hebrew University of Jerusalem Ethics Committee on Animal Care and Use. In preparation for the Sucrose Preference Test, mice were habituated 2-3 times to sucrose drinking, by exposing them overnight to two graduated tubes, one containing water and the other containing sucrose solution (1%, w/v). Water and sucrose consumption were measured, and sucrose preference was computed by dividing the amount of sucrose consumed by drinking (ml sucrose) by the total drinking volume (ml of sucrose + water). One day later, the weight of the mice and the food in their cages was weighed for later analysis of food consumption and body weight changes. Groups of mice were injected intraperitoneally (i.p.) with either vehicle (cremophor, ethanol and PBS, 1:1:18 (v/v/v)) or a cannabinoid-based formulation (by itself or with another cannabinoid, or a terpene or a flavonoid). One hour later, each of these groups was injected with LPS (330 µg/kg). All injections were administered at a dose of 10 ml/kg. Four hours following the LPS injection, mice were tested in the Open-Field Test. In this test, the measured locomotor activity reflects not only motor capacity, but particularly the innate motivation for spatial exploration (which increases the distance travelled) and the anxiety level (which reduces the distance travelled, in general, and particularly the distance and time spent in the center of the open field). Each subject was placed near one of the walls of a white 50 X 50 cm^2 arena with 40 cm high walls. The distance travelled (cm), the velocity of the movement (cm/second), the time spent (seconds), distance travelled (cm) in the center area of the arena, as well as the number of entries from the perimeter area into the center of the arena were automatically measured over a 4-minute period, using EthoVision XT video tracking system and software (Noldus, The Netherlands). Twenty-four hours after the LPS injection, mice were tested in the Social Exploration Test. […] Social exploration, defined as the time of near contact between the nose of the subject and the juvenile in the small cage was recorded for 4 min, using computerized in-house software. Sucrose preference was assessed, as described above, between 8 to 27 hr post LPS injection. Body weight and weight of the food were measured two hours before the LPS injection, and again after 24 hours, and the change in body weight and food consumption were calculated. […]
smiles,measurement,value
C=C1CC/C=C(\C)CC[C@@H]2[C@@H]1CC2(C)C [β-caryophyllene],sucrose preference compared with vehicle-treated groups,significantly increased sucrose preference
